Patent US12208071B2, “Glucagon receptor antagonists” (LIGAND PHARMACEUTICALS INCORPORATED, priority 2018, dated 2025)
“Also recorded” adds a separate entry of the source.

Experiments:
[1] = Long-term stability (ICH), 25° C./60% RH; type: physicochemical
Description: Polymorph Form A was manufactured under Good Manufacturing Practices (GMP)-compliant conditions at a scale of 1.26 kg. The container closure for the batch consisted of double-lined low density polyethylene bags placed inside fiberboard drums, and the batch was on ICH stability under storage conditions of 25° C./60% relative humidity (RH) and 40° C./75% RH. Long-term stability data through the 36-month interval and accelerated stability data through the 6-month interval are shown in Tables 2 and 3.
Stability samples were tested according to the protocol (Table 5) and to the same specification as the drug substance. The available stability data for samples stored at 25° C./60% RH and 40° C./75% RH are summarized.

[2] = Photostability / solid stability under light (5000 lux); type: physicochemical
Description: Photostability testing was conducted on Polymorph Form A at 1- and 2-week intervals under light conditions of 5000 lux with the sample held at room temperature. The samples were tested for appearance, purity (HPLC), total related substances (TRS), and XRPD. The only change observed in the photostability samples was a decrease in purity of 0.6% at the 1-week interval.
About 3 mg Polymorph Form A was weighed in glass vials and samples stored under light condition (5000 lx) for 1 week and 2 weeks, separately. Another 20 mg testing compound was weighed in glass vials and the samples stored under light condition for 1 week and 2 weeks, separately. The original compound was stored at −20° C. as the control. The physical appearance, assay, total related substances (TRS) and XRPD pattern were checked at the end of the 1st week and the 2nd week.

[3] = 5000 Lux, open container, 0 weeks
[4] = 5000 Lux, open container, 1 week
[5] = 5000 Lux, open container, 2 weeks

Individual related substance (area %, w/w), RRT 0.46 ([1]; 25° C./60% RH, 12 months): 0.08 area %, w/w
Individual related substance (area %, w/w), RRT 0.64 ([1]; 25° C./60% RH, 12 months): 0.11 area %, w/w
Individual related substance (area %, w/w), RRT 1.20 ([1]; 25° C./60% RH, 12 months): 0.05 area %, w/w
Purity (% area) ([1]; 25° C./60% RH, 12 months): 99.8 % area
Total related substances ([1]; 25° C./60% RH, 12 months): 0.24%
Water content (%) ([1]; 25° C./60% RH, 12 months): 7.0%
XRPD ([1]; 25° C./60% RH, 12 months): Same
Appearance ([1]; 25° C./60% RH, 18 months): White
Assay (anhydrous w/w %) ([1]; 25° C./60% RH, 18 months): 100.9 w/w %
Chiral purity (area %) ([1]; 25° C./60% RH, 18 months): 99.5 area %
Individual related substance (area %, w/w), RRT 0.46 ([1]; 25° C./60% RH, 18 months): 0.08 area %, w/w
Individual related substance (area %, w/w), RRT 0.64 ([1]; 25° C./60% RH, 18 months): 0.12 area %, w/w
Individual related substance (area %, w/w), RRT 1.20 ([1]; 25° C./60% RH, 18 months): 0.06 area %, w/w
Purity (% area) ([1]; 25° C./60% RH, 18 months): 99.7 % area
Total related substances ([1]; 25° C./60% RH, 18 months): 0.26%
Water content (%) ([1]; 25° C./60% RH, 18 months): 6.9%
Appearance ([1]; 25° C./60% RH, 24 months): White
Assay (anhydrous w/w %) ([1]; 25° C./60% RH, 24 months): 101.6 w/w %
Chiral purity (area %) ([1]; 25° C./60% RH, 24 months): 100.0 area %
Individual related substance (area %, w/w), RRT 0.46 ([1]; 25° C./60% RH, 24 months): 0.08 area %, w/w
Individual related substance (area %, w/w), RRT 0.64 ([1]; 25° C./60% RH, 24 months): 0.12 area %, w/w
Individual related substance (area %, w/w), RRT 1.20 ([1]; 25° C./60% RH, 24 months): 0.07 area %, w/w
Purity (% area) ([1]; 25° C./60% RH, 24 months): 99.7 % area
Total related substances ([1]; 25° C./60% RH, 24 months): 0.27%
Water content (%) ([1]; 25° C./60% RH, 24 months): 7.4%
XRPD ([1]; 25° C./60% RH, 24 months): Same
Appearance ([1]; 25° C./60% RH, 36 months): White
Assay (anhydrous w/w %) ([1]; 25° C./60% RH, 36 months): 101.4 w/w %
Chiral purity (area %) ([1]; 25° C./60% RH, 36 months): 99.8 area %
Individual related substance (area %, w/w), RRT 0.31 ([1]; 25° C./60% RH, 36 months): 0.05 area %, w/w
Individual related substance (area %, w/w), RRT 0.46 ([1]; 25° C./60% RH, 36 months): 0.08 area %, w/w
Individual related substance (area %, w/w), RRT 0.64 ([1]; 25° C./60% RH, 36 months): 0.12 area %, w/w
Individual related substance (area %, w/w), RRT 1.20 ([1]; 25° C./60% RH, 36 months): 0.05 area %, w/w
Purity (% area) ([1]; 25° C./60% RH, 36 months): 99.7 % area
Total related substances ([1]; 25° C./60% RH, 36 months): 0.3%
Water content (%) ([1]; 25° C./60% RH, 36 months): 7.5%
XRPD ([1]; 25° C./60% RH, 36 months): Same
anhydrous assay value ([1]; long-term condition through the 36-month interval): around 101%
changes in assay value, total related substances, physical description, or solid state form (XRPD) ([1]; stored at 25° C./60% RH and 40° C./75% RH): No significant changes
Total related substances ([1]; stored at 25° C./60% RH and 40° C./75% RH, remained constant): around 0.25%
Appearance [2, 3]: White powder
Purity (area %) [2, 3]: 99.8 area %
Total related substances (area %, w/w) [2, 3]: 0.25 area %, w/w
Appearance [2, 4]: White powder
Purity (area %) [2, 4]: 99.2 area %
Total related substances (area %, w/w) [2, 4]: 0.25 area %, w/w
XRPD [2, 4]: Same form
Appearance [2, 5]: White powder
Purity (area %) [2, 5]: 99.2 area %
Total related substances (area %, w/w) [2, 5]: 0.25 area %, w/w
XRPD [2, 5]: Same form
decrease in purity ([2]; 5000 lux, room temperature, 1-week interval): 0.6%
Appearance ([2]; light (5000 lx), 1 week): white powder
TRS % ([2]; light (5000 lx), 1 week): 0.25%
XRPD pattern ([2]; light (5000 lx), 1 week): Form A
Appearance ([2]; light (5000 lx), 2 weeks): white powder
TRS % ([2]; light (5000 lx), 2 weeks): 0.25%
XRPD pattern ([2]; light (5000 lx), 2 weeks): Form A
Appearance ([2]; −20° C., 0 day (control)): white powder
TRS % ([2]; −20° C., 0 day (control)): 0.25%
XRPD pattern ([2]; −20° C., 0 day (control)): Form A
SMILES: Cc1cc(C)c(-c2ccc(NC(=O)[C@H](Cc3ccc(C(=O)NCCS(=O)(=O)[O-])cc3)c3ccc(-c4ccc(C(C)(C)C)cc4)cc3)cc2)c(C)c1.[Na+] [Polymorph Form A, Sodium (R)-2-(4-(2-(4′-(tert-butyl)-[1,1′-biphenyl]-4-yl)-3-oxo-3-((2′,4′,6′-trimethyl-[1,1′-biphenyl]-4-yl)amino)propyl)benzamido)ethane-1-sulfonate]
stability under light condition (overall) ([2]; 5000 lux, 2 weeks): No significant changes; also recorded: No significant increase in TRS % or decrease in recovery %; also recorded: relatively stable
